From ChEMBL document CHEMBL1212831, “Discovery of N-[(2S)-5-(6-fluoro-3-pyridinyl)-2,3-dihydro-1H-inden-2-yl]-2-propanesulfonamide, a novel clinical AMPA receptor positive modulator” (J Med Chem, 2010)
Values after ≈ are worked out from the molar mass of the structure shown. Active and inactive are the calls of the source. No cut-off for these calls is given here.

Tests used:
[1] = Plasma protein binding in human at 1 ug/ml after 6 hrs by equilibrium dialysis method; type: ADME, cell-free; settings: read-out: PPB (converted)
[2] = tested on: Brain; test: Brain tissue binding in rat at 1 ug/ml after 6 hrs by equilibrium dialysis method; type: ADME, tissue-based
[3] = tested on: Canis familiaris; test: Liver blood flow in Beagle dog at 0.125 mg/kg, iv and 0.5 mg/kg, po; type: ADME, organism-based, Canis lupus familiaris; settings: in vivo
[4] = Half life in Beagle dog at 0.125 mg/kg, iv; type: ADME, organism-based, Canis lupus familiaris; design: dose 0.125 mg/kg, route intravenous; settings: in vivo
[5] = Cmax in Beagle dog at 0.5 mg/kg, po; type: ADME, organism-based, Canis lupus familiaris; design: dose 0.5 mg/kg, route oral; settings: in vivo
[6] = Blood clearance in cynomolgus monkey at 0.125 mg/kg, iv and 0.5 mg/kg, po; type: ADME, organism-based, Macaca fascicularis
[7] = tested on: Cynomolgus monkey; test: Liver blood flow in cynomolgus monkey at 0.125 mg/kg, iv and 0.5 mg/kg, po; type: ADME, organism-based, Macaca fascicularis; settings: in vivo
[8] = Oral bioavailability in cynomolgus monkey at 0.5 mg/kg; type: ADME, organism-based, Macaca fascicularis; settings: in vivo
[9] = Tmax in cynomolgus monkey at 0.5 mg/kg, po; type: ADME, organism-based, Macaca fascicularis; design: dose 0.5 mg/kg, route oral; settings: in vivo
[10] = Equilibrium solubility of the compound in simulated gastric fluid at pH 2 to 10; type: physicochemical
[11] = Equilibrium solubility of the compound in fasted simulated intestinal fluid at pH 2 to 10; type: physicochemical
[12] = molecular target: T1, Nuclear receptor subfamily 1 group I member 2 (Rattus norvegicus, UniProt Q9R1A7); test: Activation of rat PXR
T1 sequence (Q9R1A7 whole entry): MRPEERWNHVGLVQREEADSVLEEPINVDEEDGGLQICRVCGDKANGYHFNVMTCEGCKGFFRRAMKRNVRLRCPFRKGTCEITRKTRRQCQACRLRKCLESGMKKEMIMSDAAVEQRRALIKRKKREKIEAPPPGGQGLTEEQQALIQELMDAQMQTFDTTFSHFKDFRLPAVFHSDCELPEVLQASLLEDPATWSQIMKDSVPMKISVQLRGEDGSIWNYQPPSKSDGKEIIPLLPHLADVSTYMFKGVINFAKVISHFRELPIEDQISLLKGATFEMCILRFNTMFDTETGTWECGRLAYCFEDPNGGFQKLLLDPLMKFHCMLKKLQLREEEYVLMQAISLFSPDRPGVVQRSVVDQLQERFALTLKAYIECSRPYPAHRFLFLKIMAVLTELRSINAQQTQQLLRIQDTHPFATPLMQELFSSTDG

[13] = tested on: Cynomolgus monkey; test: Cardiotoxicity in conscious cynomolgus monkey up to 2.5 mg/kg, po; type: toxicity, organism-based, Macaca fascicularis; design: dose 2.5 mg/kg, route oral; settings: in vivo
[14] = molecular target: Voltage-gated inwardly rectifying potassium channel KCNH2 (Homo sapiens, UniProt Q12809); test: Inhibition of human ERG
Chain of Voltage-gated inwardly rectifying potassium channel KCNH2 (Q12809 whole entry, canonical isoform): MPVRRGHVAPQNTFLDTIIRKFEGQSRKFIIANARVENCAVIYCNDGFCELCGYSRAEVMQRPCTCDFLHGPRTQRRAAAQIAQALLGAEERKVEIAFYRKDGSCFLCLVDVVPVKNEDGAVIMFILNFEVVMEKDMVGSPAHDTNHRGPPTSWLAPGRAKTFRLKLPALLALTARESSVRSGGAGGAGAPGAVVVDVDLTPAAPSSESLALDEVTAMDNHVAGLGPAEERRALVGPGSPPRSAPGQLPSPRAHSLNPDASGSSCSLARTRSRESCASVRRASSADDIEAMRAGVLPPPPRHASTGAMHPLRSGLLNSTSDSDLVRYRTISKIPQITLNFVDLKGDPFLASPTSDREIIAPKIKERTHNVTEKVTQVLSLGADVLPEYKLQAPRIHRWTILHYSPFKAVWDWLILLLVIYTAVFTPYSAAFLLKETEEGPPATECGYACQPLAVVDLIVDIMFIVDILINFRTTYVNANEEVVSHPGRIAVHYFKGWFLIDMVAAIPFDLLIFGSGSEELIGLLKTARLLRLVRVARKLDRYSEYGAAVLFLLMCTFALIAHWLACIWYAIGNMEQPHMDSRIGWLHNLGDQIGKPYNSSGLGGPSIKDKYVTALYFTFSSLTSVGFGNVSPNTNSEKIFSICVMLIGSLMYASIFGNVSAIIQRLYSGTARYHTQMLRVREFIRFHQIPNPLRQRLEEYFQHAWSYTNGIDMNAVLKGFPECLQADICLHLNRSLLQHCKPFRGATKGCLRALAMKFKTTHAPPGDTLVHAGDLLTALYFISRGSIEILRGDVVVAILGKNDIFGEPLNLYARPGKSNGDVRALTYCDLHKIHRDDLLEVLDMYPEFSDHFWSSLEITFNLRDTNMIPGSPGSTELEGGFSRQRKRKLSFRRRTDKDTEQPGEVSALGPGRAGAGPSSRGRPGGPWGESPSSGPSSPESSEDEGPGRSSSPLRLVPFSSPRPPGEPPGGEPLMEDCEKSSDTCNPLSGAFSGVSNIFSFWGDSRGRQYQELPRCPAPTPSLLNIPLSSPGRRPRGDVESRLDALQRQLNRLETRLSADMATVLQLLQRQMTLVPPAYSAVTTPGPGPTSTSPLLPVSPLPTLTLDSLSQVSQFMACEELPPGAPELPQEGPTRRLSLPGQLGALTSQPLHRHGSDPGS

[15] = molecular target: Glutamate receptor 2 (Homo sapiens, UniProt P42262); test: Activation of human recombinant GluR2 flip isoform expressed in HEK293 cells assessed as increase of glutamate-induced inward current at 30 uM by whole cell voltage-clamp electrophysiology assay; type: cell-based
Chain of Glutamate receptor 2 (P42262 whole entry, canonical isoform): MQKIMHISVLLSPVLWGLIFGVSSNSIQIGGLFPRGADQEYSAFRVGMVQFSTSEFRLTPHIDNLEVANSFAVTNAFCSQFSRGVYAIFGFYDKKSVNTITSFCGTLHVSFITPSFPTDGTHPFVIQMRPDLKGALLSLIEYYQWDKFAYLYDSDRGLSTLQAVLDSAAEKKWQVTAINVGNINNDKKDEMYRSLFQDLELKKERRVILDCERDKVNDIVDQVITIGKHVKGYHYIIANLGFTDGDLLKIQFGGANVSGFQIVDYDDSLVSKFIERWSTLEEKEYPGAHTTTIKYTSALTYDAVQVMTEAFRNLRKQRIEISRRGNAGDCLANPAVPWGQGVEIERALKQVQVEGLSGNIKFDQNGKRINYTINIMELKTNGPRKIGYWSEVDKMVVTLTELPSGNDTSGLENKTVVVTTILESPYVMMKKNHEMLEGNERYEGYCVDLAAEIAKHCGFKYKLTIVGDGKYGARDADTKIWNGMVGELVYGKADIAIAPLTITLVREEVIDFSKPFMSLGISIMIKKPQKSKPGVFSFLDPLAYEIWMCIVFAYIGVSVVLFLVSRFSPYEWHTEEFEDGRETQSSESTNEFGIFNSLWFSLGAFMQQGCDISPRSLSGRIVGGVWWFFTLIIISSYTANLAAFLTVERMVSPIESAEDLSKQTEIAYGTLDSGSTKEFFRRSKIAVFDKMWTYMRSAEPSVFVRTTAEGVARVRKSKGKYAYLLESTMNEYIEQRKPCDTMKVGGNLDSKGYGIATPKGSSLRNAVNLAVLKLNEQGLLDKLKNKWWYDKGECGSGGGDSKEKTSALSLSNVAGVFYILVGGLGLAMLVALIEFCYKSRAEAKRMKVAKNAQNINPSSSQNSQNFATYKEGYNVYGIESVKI

[16] = tested on: Rattus norvegicus; test: Antiamnesic activity in po dosed assessed as inhibition of amnesic deficit by step-down passive avoidance test; type: functional, organism-based; settings: Wistar
[17] = Half life in Sprague-Dawley rat at 1 mg/kg, iv and 3 mg/kg, po; type: ADME, organism-based; settings: in vivo
[18] = Tmax in Sprague-Dawley rat at 3 mg/kg, po; type: ADME, organism-based; design: dose 3 mg/kg, route oral; settings: in vivo
[19] = molecular target: Cytochrome P450 2C9 (Homo sapiens, UniProt P11712)
Chain of Cytochrome P450 2C9 (P11712 whole entry): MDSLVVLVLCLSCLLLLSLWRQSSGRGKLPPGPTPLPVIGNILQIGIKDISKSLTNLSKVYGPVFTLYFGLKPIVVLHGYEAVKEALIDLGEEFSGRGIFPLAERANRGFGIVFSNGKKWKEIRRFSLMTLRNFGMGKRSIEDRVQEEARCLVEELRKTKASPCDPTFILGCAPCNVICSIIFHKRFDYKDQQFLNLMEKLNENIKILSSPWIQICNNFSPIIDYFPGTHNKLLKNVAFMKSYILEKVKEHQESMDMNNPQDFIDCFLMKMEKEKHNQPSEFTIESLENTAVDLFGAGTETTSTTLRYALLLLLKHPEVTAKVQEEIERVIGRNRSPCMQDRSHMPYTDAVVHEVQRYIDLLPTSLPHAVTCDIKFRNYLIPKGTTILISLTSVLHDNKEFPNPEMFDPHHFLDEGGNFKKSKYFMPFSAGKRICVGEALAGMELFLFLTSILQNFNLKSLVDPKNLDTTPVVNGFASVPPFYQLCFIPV
Description: Inhibition of human CYP2C9 after 10 mins

[20] = molecular target: Cytochrome P450 2D6 (Homo sapiens, UniProt P10635)
Chain of Cytochrome P450 2D6 (P10635 whole entry): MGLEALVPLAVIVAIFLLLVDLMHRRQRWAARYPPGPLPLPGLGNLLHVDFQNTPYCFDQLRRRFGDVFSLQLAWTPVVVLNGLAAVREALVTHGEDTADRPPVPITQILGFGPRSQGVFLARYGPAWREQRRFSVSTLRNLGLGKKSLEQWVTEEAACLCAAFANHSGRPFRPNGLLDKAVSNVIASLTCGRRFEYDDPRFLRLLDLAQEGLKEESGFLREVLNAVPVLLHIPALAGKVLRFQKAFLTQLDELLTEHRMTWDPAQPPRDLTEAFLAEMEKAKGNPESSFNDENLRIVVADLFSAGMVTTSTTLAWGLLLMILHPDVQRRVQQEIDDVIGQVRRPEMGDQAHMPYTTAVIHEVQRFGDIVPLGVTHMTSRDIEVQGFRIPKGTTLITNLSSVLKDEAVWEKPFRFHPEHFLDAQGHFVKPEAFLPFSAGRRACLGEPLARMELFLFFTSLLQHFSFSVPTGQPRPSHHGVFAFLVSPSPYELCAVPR
Description: Inhibition of human CYP2D6 after 10 mins

[21] = molecular target: Cytochrome P450 3A4 (Homo sapiens, UniProt P08684)
Chain of Cytochrome P450 3A4 (P08684 whole entry): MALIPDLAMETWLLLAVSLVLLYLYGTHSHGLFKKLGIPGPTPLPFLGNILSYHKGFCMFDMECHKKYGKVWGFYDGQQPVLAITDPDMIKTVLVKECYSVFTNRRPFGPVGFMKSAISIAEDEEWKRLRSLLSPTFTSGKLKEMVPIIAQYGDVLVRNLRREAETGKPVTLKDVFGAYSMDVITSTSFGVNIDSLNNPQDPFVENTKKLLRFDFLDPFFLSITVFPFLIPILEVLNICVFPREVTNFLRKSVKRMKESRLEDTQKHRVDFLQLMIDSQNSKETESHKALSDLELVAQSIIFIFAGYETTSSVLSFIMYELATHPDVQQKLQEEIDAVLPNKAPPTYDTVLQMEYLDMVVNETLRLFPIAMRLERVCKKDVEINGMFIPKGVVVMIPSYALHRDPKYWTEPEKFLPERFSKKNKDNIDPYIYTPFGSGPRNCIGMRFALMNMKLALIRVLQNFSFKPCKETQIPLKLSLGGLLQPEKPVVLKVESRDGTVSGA
Description: Inhibition of human CYP3A4 after 10 mins

[22] = tested on: Liver microsomes

fraction unbound at 6 h, 1 ug/ml [1]: 0.092
Activity [2]: 97.4%
LBF [3]: 11%
half-life [4]: 16 h
Cmax [5]: 116 ng/mL
clearance [6]: 1.4 mL/min/kg
LBF [7]: 3%
bioavailability [8]: 51%
Tmax [9]: 6 h
solubility thermodynamic [10]: 100 µg/mL (≈ 299 µM)
solubility thermodynamic [11]: 100 µg/mL (≈ 299 µM)
Activity [12]: Not Active
Activity [15]: Active
half-life [17]: 5 h
Tmax [18]: 3 h
IC50 [19]: > 10 µM
IC50 [20]: > 10 µM
IC50 [21]: > 10 µM
IC50 [22]: 0.7 µM
Compound: CC(C)S(=O)(=O)N[C@H]1Cc2ccc(-c3ccc(F)nc3)cc2C1 [GSK-729327]
Activity [13]: Non-toxic
inhibition (INH) [14]: Not Active
inhibition [16]: inactive
